In ChEMBL document CHEMBL1201862, “PubChem BioAssay data set” (2004):
Activity calls are given as the source filed them.

Experiments:
[1] = viability loss in human Jurkat cells – cell-based, luminescence, cytotoxicity control for P. falciparum gametocyte viability project, dose response (AID 1117277); type: functional;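 note: potency reflects loss of cellular ATP meaning fewer viable cells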
[2] = viability inhibitors of stage V gametocytes – luminescence, dose response (AID 1117278); type: functional, cell-based;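 note: gametocytes exposed to compound for 24 hours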
[3] = molecular target: T1, Oxysterols receptor LXR-beta (Homo sapiens, UniProt P55055); type: functional, cell-based;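 note: agonist activity at LXR measured by a cell-based luminescence readout across a dose range, run as a counterscreen for daf-12 agonists; HEK293 cells with Gal4-LXR fusion and GAL4-driven luciferase reporter; potency for activation of Gal4-LXR reporter so compounds are agonists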
T1 sequence (P55055 whole entry): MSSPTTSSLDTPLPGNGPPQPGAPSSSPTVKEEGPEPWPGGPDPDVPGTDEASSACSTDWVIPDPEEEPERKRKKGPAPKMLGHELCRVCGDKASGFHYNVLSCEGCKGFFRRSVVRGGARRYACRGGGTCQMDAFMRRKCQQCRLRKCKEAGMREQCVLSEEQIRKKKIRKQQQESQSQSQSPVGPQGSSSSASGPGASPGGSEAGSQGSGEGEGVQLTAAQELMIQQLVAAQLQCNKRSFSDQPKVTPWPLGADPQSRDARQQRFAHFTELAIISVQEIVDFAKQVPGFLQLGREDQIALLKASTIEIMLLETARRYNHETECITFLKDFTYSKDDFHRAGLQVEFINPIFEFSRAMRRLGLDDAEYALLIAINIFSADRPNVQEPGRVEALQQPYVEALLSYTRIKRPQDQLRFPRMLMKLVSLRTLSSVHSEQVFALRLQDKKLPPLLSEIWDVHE

[4] = molecular target: T2, Tyrosine-protein phosphatase non-receptor type 7 (Homo sapiens, UniProt P35236); test: HePTP tyrosine phosphatase activity blockers – biochemical, absorbance, leukemia target, primary screen (AID 521); type: functional
T2 sequence (P35236 whole entry): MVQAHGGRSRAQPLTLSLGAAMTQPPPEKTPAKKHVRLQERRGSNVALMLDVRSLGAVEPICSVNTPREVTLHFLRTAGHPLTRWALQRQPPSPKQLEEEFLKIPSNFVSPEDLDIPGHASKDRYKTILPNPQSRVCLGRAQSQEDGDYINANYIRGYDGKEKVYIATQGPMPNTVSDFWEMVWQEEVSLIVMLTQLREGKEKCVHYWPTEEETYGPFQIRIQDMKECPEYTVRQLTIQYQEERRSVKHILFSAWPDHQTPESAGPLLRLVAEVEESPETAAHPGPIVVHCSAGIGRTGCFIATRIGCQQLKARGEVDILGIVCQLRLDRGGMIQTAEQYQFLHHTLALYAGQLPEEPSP

[5] = molecular target: T3, Short transient receptor potential channel 4 (Mus musculus, UniProt Q9QUQ5); test: block of DAMGO-driven TRPC4 calcium entry – cell-based, HEK293 TRPC4/mu-opioid, Fluo-4 calcium, dose response (AID 434942); type: functional;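 note: potency of inhibitors blocking the TRPC4 calcium response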
T3 sequence (Q9QUQ5 whole entry): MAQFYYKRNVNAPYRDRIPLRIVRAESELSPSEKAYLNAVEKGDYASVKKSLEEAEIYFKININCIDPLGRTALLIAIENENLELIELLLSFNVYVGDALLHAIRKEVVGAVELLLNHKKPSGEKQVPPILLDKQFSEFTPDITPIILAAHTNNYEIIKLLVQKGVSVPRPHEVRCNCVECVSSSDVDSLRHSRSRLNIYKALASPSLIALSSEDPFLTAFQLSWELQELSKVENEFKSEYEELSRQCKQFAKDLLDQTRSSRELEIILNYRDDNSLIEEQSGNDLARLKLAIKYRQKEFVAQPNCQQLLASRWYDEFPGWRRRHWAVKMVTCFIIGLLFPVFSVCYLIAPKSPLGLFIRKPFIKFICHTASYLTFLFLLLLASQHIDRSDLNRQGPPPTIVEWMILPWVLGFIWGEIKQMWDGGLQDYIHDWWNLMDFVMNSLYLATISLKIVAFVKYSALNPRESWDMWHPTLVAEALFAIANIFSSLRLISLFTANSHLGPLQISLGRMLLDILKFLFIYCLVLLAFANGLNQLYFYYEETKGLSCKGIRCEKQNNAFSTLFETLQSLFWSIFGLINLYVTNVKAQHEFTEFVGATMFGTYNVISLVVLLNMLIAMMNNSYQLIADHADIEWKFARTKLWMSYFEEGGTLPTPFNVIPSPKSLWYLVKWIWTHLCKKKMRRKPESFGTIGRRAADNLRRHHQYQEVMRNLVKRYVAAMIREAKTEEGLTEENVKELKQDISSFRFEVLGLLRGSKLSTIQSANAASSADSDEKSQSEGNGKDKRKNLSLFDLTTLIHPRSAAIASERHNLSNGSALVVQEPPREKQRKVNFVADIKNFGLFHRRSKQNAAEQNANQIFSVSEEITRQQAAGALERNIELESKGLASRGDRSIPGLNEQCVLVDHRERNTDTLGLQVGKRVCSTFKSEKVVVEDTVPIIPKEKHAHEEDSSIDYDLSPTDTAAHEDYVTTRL

[6] = molecular target: T4, DNA repair protein RAD52 homolog (Homo sapiens, UniProt P43351); type: functional, biochemical
T4 sequence (P43351 whole entry): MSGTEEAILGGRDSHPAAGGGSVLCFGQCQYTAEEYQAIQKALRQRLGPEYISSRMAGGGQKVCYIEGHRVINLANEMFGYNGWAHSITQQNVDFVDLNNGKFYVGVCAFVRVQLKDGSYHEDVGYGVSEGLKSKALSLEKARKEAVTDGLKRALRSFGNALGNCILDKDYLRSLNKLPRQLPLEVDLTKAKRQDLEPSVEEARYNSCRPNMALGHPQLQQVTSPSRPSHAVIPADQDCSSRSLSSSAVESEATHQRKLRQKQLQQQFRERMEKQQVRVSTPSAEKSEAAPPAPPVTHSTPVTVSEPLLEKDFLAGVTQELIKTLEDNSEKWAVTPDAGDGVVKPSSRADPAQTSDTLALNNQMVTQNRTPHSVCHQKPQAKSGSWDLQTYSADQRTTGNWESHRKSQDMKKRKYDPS

Structure (SMILES): CCOC(=O)CSc1nc2cc3c(cc2cc1C)OCO3
- IC50 [1]: > 83.3 µM (inactive)
- IC50 [2]: > 109 µM (inactive)

Structure (SMILES): COc1ccc(-c2nc(N)n(C(=O)c3ccccc3)n2)cc1
- IC50 [1]: > 83.3 µM (inactive)
- IC50 [2]: > 109 µM (inactive)

Structure (SMILES): C(=C\n1nnc2ccccc21)/c1ccccn1
- EC50 [3]: > 67.5 µM (inactive)

Structure (SMILES): COc1ccc(Cc2nnc(NC(=O)c3ccco3)s2)cc1OC
- IC50 [4]: > 100 µM (not active)

Structure (SMILES): COCC1CCN(Cc2nc(-c3cccs3)no2)C1 (stereo not drawn)
- EC50 [3]: > 67.5 µM (inactive)

Structure (SMILES): CCn1c2ccccc2c2nnc(SCC(=O)N3CC(C)OC(C)C3)nc21 (stereo not drawn)
- IC50 [4]: > 100 µM (not active)

Structure (SMILES): Cc1cc(C)cc(OCc2nc(-c3cccnc3)no2)c1
- IC50 [1]: > 83.3 µM (inactive)
- IC50 [2]: > 109 µM (inactive)

Structure (SMILES): Cn1c(=O)c2c(nc(SCc3cccnc3)n2Cc2ccc(F)cc2)n(C)c1=O
- IC50 [4]: > 100 µM (not active)
- EC50 [5]: 0.944 µM (active)

Structure (SMILES): Cc1ccccc1Cn1c2ccccc2c2cnn(CC(=O)NCCCN3CCN(C)CC3)c(=O)c21
- AC50 [6]: 9.43 µM (active)
